Laboratory results: ChEMBL document CHEMBL1201862, “PubChem BioAssay data set” (2004)
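Values below derive from 48-hour exposures of cells grown in 96-well plates, with endpoints linearly interpolated between the two concentrations bracketing the appropriate inhibition level. GI50 marks 50% less growth.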 Active and inactive are the calls of the source. No stated cut-off is given here; in the data, active = GI50 up to about 1.1 µM and inactive = higher.

What was measured:
Assay in all cases: NCI anticancer screen, dose series, 48 h
MDA-MB-435 = test system: MDA-MB-435
CAKI-1 = test system: CAKI-1
PC-3 = test system: PC-3
MCF7 = test system: MCF7
HCC 2998 = test system: HCC 2998
SF-295 = test system: SF-295
A498 = test system: A498
786-0 = test system: 786-0
Hs-578T = test system: Hs-578T
HOP-92 = test system: HOP-92
SNB-75 = test system: SNB-75
BT-549 = test system: BT-549
NCI-H23 = test system: NCI-H23
SR = test system: SR
DU-145 = test system: DU-145
OVCAR-8 = test system: OVCAR-8

Row | SMILES | GI50 (MDA-MB-435) | GI50 (CAKI-1) | GI50 (PC-3) | GI50 (MCF7) | GI50 (HCC 2998) | GI50 (SF-295) | GI50 (A498) | GI50 (786-0) | GI50 (Hs-578T) | GI50 (HOP-92) | GI50 (SNB-75) | GI50 (BT-549) | GI50 (NCI-H23) | GI50 (SR) | GI50 (DU-145) | GI50 (OVCAR-8)
1 | CSC1(SC2=NCCN2)SC2(NCCN2)S1 | 15.4 µM (inactive) | 13.6 µM (inactive) | 18.5 µM (inactive) | 3.18 µM (inactive) | 15.5 µM (inactive) | 27.8 µM (inactive) | 12.6 µM (inactive) | 3.86 µM (inactive) | 24.3 µM (inactive) | 13.5 µM (inactive) | 17.3 µM (inactive) | 21.4 µM (inactive) | 16.3 µM (inactive) | 5.7 µM (inactive) | 14.8 µM (inactive) | 19.7 µM (inactive)
2 | Sc1ncnc2c1ncn2Cc1ccco1 | > 100 µM (inactive) | > 100 µM (inactive) | > 100 µM (inactive) | > 100 µM (inactive) | > 100 µM (inactive) | > 100 µM (inactive) | > 100 µM (inactive) | > 100 µM (inactive) | > 100 µM (inactive) | > 100 µM (inactive) | > 100 µM (inactive) | > 100 µM (inactive) | > 100 µM (inactive) | > 100 µM (inactive) | > 100 µM (inactive) | > 100 µM (inactive)
3 | Nc1nc(N)nc(CC(=O)O)n1 | > 100 µM (inactive) | > 100 µM (inactive) | > 100 µM (inactive) | > 100 µM (inactive) | – | > 100 µM (inactive) | > 100 µM (inactive) | > 100 µM (inactive) | > 100 µM (inactive) | > 100 µM (inactive) | > 100 µM (inactive) | > 100 µM (inactive) | > 100 µM (inactive) | > 100 µM (inactive) | > 100 µM (inactive) | > 100 µM (inactive)
4 | CN(C)c1ccc(/C=C2\Oc3ccccc3C2=O)cc1 | 56.8 µM (inactive) | > 100 µM (inactive) | > 100 µM (inactive) | 54.1 µM (inactive) | > 100 µM (inactive) | > 100 µM (inactive) | – | > 100 µM (inactive) | 22.5 µM (inactive) | – | > 100 µM (inactive) | > 100 µM (inactive) | > 100 µM (inactive) | 31 µM (inactive) | > 100 µM (inactive) | > 100 µM (inactive)
5 | N#C/C(=C1/c2cc([N+](=O)[O-])ccc2-c2c1cc([N+](=O)[O-])cc2[N+](=O)[O-])N1CCCCC1 | > 100 µM (inactive) | > 100 µM (inactive) | > 100 µM (inactive) | 19 µM (inactive) | > 100 µM (inactive) | > 100 µM (inactive) | > 100 µM (inactive) | 39.2 µM (inactive) | 43.7 µM (inactive) | – | 16.9 µM (inactive) | > 100 µM (inactive) | 55.7 µM (inactive) | 1.34 µM (inactive) | 38.5 µM (inactive) | > 100 µM (inactive)
6 | CC(=O)N(C)c1ccc(Nc2ccnc3ccc4nn(C)nc4c23)cc1 | 39.3 µM (inactive) | 12.2 µM (inactive) | 26.9 µM (inactive) | 13.4 µM (inactive) | – | 21.8 µM (inactive) | – | 26.9 µM (inactive) | 17.3 µM (inactive) | – | 21.3 µM (inactive) | 31.8 µM (inactive) | 32.4 µM (inactive) | 25.6 µM (inactive) | 28.6 µM (inactive) | 36.1 µM (inactive)
7 | COC(=O)C(=O)Nc1cc2c3c(c1)Oc1cccc4c1C3(C)c1c(cccc1O2)O4 | > 100 µM (inactive) | > 72.4 µM (inactive) | 97.1 µM (inactive) | > 100 µM (inactive) | > 59.2 µM (inactive) | > 100 µM (inactive) | 39.7 µM (inactive) | 30.9 µM (inactive) | > 83.4 µM (inactive) | 72.6 µM (inactive) | > 100 µM (inactive) | > 100 µM (inactive) | > 100 µM (inactive) | 2.93 µM (inactive) | > 44.7 µM (inactive) | –
8 | C/C=C(/C)C(=O)OC1CC(C)[C@H]2CC(=O)C(C)=C2CC1C(C)(C)OC(C)=O (stereo not given in full) | 28 µM (inactive) | 37.1 µM (inactive) | 31.3 µM (inactive) | 40.6 µM (inactive) | 22.6 µM (inactive) | 24.7 µM (inactive) | 20.2 µM (inactive) | 43.8 µM (inactive) | 35.4 µM (inactive) | 19.6 µM (inactive) | 44.4 µM (inactive) | 31 µM (inactive) | 74.8 µM (inactive) | 23 µM (inactive) | 81.1 µM (inactive) | 30.8 µM (inactive)
9 | COC(=O)CNS(=O)(=O)c1ccc(-c2c3nc(c(-c4ccc(S(=O)(=O)NCC(=O)OC)cc4)c4ccc([nH]4)c(-c4ccc(S(=O)(=O)NCC(=O)OC)cc4)c4nc(c(-c5ccc(S(=O)(=O)NCC(=O)OC)cc5)c5ccc2[nH]5)C=C4)C=C3)cc1 | > 100 µM (inactive) | > 100 µM (inactive) | > 100 µM (inactive) | > 100 µM (inactive) | > 100 µM (inactive) | > 100 µM (inactive) | 64.9 µM (inactive) | > 100 µM (inactive) | > 100 µM (inactive) | – | > 100 µM (inactive) | > 100 µM (inactive) | > 100 µM (inactive) | > 100 µM (inactive) | > 100 µM (inactive) | > 100 µM (inactive)
10 | COc1ccc(C(SCCO)(c2ccccc2)c2ccc(OC)cc2)cc1 | 5.65 µM (inactive) | 21 µM (inactive) | 14.5 µM (inactive) | 5.36 µM (inactive) | 5.4 µM (inactive) | 4.36 µM (inactive) | 13.9 µM (inactive) | 14.6 µM (inactive) | 11.1 µM (inactive) | 14.6 µM (inactive) | 4.58 µM (inactive) | 19.5 µM (inactive) | 18.7 µM (inactive) | – | 15.5 µM (inactive) | 19.2 µM (inactive)
11 | CC(C)(C)OC(=O)CC(NC(=O)OC(C)(C)C)C(=O)NC(C(=O)O)C(O)c1ccccc1 (stereo not given) | > 100 µM (inactive) | > 100 µM (inactive) | 91.4 µM (inactive) | 37.6 µM (inactive) | 14.3 µM (inactive) | > 100 µM (inactive) | > 100 µM (inactive) | > 100 µM (inactive) | 70.8 µM (inactive) | – | > 100 µM (inactive) | > 100 µM (inactive) | > 100 µM (inactive) | – | > 100 µM (inactive) | > 100 µM (inactive)
12 | O=C1/C(=C\c2cccc(Oc3ccccc3)c2)SC(c2ccccc2)N1c1cc(Cl)ccc1Cl (stereo not given) | 32.3 µM (inactive) | 69.2 µM (inactive) | 52.4 µM (inactive) | 25.9 µM (inactive) | 37.2 µM (inactive) | 24.2 µM (inactive) | > 100 µM (inactive) | 27 µM (inactive) | 24.4 µM (inactive) | 17.7 µM (inactive) | > 100 µM (inactive) | 36.8 µM (inactive) | 33.4 µM (inactive) | – | 36 µM (inactive) | 21.3 µM (inactive)
13 | Cc1nnc2nc(-c3ccc(Cl)cc3Cl)cc(-c3ccc(Cl)cc3)n12 | > 100 µM (inactive) | 66.5 µM (inactive) | 57.8 µM (inactive) | 31 µM (inactive) | – | 91.4 µM (inactive) | – | > 100 µM (inactive) | > 100 µM (inactive) | 1.47 µM (inactive) | – | > 100 µM (inactive) | > 100 µM (inactive) | > 100 µM (inactive) | > 100 µM (inactive) | > 100 µM (inactive)
14 | N#CC[C@@H](O)COc1ccccc1 | > 100 µM (inactive) | > 100 µM (inactive) | > 100 µM (inactive) | > 100 µM (inactive) | > 100 µM (inactive) | > 100 µM (inactive) | > 100 µM (inactive) | > 100 µM (inactive) | > 100 µM (inactive) | – | > 100 µM (inactive) | > 100 µM (inactive) | > 100 µM (inactive) | > 100 µM (inactive) | > 100 µM (inactive) | > 100 µM (inactive)
15 | COc1cc(OC)cc(Oc2nc3ccc(C(F)(F)F)cc3nc2-c2ccccc2)c1 | > 100 µM (inactive) | > 100 µM (inactive) | > 100 µM (inactive) | > 100 µM (inactive) | > 100 µM (inactive) | > 100 µM (inactive) | > 100 µM (inactive) | > 100 µM (inactive) | > 100 µM (inactive) | > 100 µM (inactive) | > 100 µM (inactive) | > 100 µM (inactive) | > 100 µM (inactive) | > 100 µM (inactive) | > 100 µM (inactive) | > 100 µM (inactive)
16 | COc1ccc(N2C(=O)C(Cl)C2c2cc3cc(Br)ccc3nc2Cl)cc1 (stereo not given) | 4.71 µM (inactive) | 6.32 µM (inactive) | 7.13 µM (inactive) | 4.82 µM (inactive) | 4.09 µM (inactive) | 11.9 µM (inactive) | 16.6 µM (inactive) | 6.17 µM (inactive) | 11.5 µM (inactive) | 8.38 µM (inactive) | 20.5 µM (inactive) | 4.46 µM (inactive) | 5.98 µM (inactive) | 1.33 µM (inactive) | 7.46 µM (inactive) | 13.4 µM (inactive)
17 | CC(=O)OCCOCn1cnc2c(Cl)nc(Cl)nc21 | 17.3 µM (inactive) | 0.275 µM (active) | 17 µM (inactive) | > 10 µM (inactive) | 12.2 µM (inactive) | > 10 µM (inactive) | 32.2 µM (inactive) | 21.4 µM (inactive) | 18.7 µM (inactive) | 1.67 µM (inactive) | 21.5 µM (inactive) | 18.7 µM (inactive) | 18.7 µM (inactive) | 3.87 µM (inactive) | 19.5 µM (inactive) | 20.8 µM (inactive)
18 | O=C(CCc1cccc(O)c1)NCCCNC(=O)CCc1cccc(O)c1 | > 100 µM (inactive) | > 100 µM (inactive) | > 100 µM (inactive) | > 100 µM (inactive) | > 100 µM (inactive) | > 100 µM (inactive) | > 100 µM (inactive) | > 100 µM (inactive) | > 100 µM (inactive) | 50.9 µM (inactive) | – | > 100 µM (inactive) | > 100 µM (inactive) | > 100 µM (inactive) | > 100 µM (inactive) | > 100 µM (inactive)
